Data published in ChEMBL document CHEMBL1142943, “Homology modeling of human Fyn kinase structure: discovery of rosmarinic acid as a new Fyn kinase inhibitor and in silico study of its possible binding modes” (J Med Chem, 2007).

Assays:
[1] = molecular target: T1, Tyrosine-protein kinase Fyn (Homo sapiens, UniProt P06241); experiment: Inhibition of human Fyn expressed in Sf9 cells after 1 min by ELISA in presence of 1 umol/L ATP
[2] = molecular target: T1, Tyrosine-protein kinase Fyn; experiment: Inhibition of human Fyn expressed in Sf9 cells at 10 umol/L by ELISA
[3] = molecular target: T1, Tyrosine-protein kinase Fyn; experiment: Inhibition of human Fyn expressed in Sf9 cells after 1 min by ELISA in presence of 10 umol/L ATP
[4] = molecular target: T1, Tyrosine-protein kinase Fyn; experiment: Inhibition of human Fyn expressed in Sf9 cells after 1 min by ELISA in presence of 100 umol/L ATP
[5] = molecular target: T1, Tyrosine-protein kinase Fyn; experiment: Inhibition of human Fyn expressed in Sf9 cells after 20 mins by ELISA in presence of 10 umol/L ATP
[6] = molecular target: T1, Tyrosine-protein kinase Fyn; experiment: Inhibition of human Fyn expressed in Sf9 cells after 20 mins by ELISA in presence of 100 umol/L ATP
[7] = molecular target: T1, Tyrosine-protein kinase Fyn; experiment: Inhibition of human Fyn expressed in Sf9 cells after 20 mins by ELISA in presence of 1 umol/L ATP
[8] = molecular target: T1, Tyrosine-protein kinase Fyn; experiment: Inhibition of human Fyn expressed in Sf9 cells at 30 umol/L by ELISA

T1 sequence (P06241 whole entry): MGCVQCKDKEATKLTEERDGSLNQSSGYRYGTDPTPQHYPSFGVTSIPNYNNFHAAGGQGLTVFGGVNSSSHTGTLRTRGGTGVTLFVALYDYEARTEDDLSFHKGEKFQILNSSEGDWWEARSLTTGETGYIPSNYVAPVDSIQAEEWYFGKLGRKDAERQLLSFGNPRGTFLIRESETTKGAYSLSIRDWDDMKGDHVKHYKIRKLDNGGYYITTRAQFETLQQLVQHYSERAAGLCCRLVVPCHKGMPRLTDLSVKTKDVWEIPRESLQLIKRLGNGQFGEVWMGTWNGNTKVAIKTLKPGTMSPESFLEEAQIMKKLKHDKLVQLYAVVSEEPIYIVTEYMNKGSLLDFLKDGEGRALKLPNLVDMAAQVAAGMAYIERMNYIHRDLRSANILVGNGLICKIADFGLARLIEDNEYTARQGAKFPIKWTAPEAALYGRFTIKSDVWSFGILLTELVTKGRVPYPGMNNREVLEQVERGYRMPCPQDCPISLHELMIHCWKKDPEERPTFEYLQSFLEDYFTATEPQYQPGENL

IC50 [1]: 36 µM
Ki [2]: 7.5 µM
IC50 [3]: 74 µM
IC50 [4]: 63 µM
IC50 [5]: 3.6 µM
IC50 [6]: 17 µM
IC50 [7]: 1.3 µM
Ki [8]: 10.2 µM
SMILES: O=C(/C=C/c1ccc(O)c(O)c1)O[C@H](Cc1ccc(O)c(O)c1)C(=O)O [ROSMARINIC ACID]
